Results: US20050221328A1, “Inhibitors of inflammatory gene activity and cholesterol biosynthesis” (Wyeth, priority 2002, published 2005)
Entries after “also recorded” stand apart in the source; their conditions may differ.

Key:
[1] = system: Fnk, JAB, LIX, bcl-3 and SHP; experiment: Liver expression of Fnk, JAB, LIX, bcl-3 and SHP by realtime PCR after estrogen receptor ligand pretreatment and IL-1β; settings: for effect on regulation of liver Fnk, JAB, LIX, bcl-3 and SHP expression vs IL-1β alone: 1 or 10 mg/kg/day E2, 30 mg/kg/day genistein, 10 mg/kg/day ICI182780, plus IL-1β
Experimental: Referring to FIG. 3a, to distinguish these two mechanisms, the IL-1β fold induction of Fnk, JAB, LIX, and bcl-3 and the IL-1β fold repression of SHP was quantified in animals pretreated with vehicle (black bars) or 100 ug/kg/day EE (grey bars). Liver RNA levels of each gene (mean +/−SEM) were determined by realtime PCR of RNA from each individual animal.
Referring to FIGS. 4a, 4b, 4c, 4d and 4e, experiments were conducted to determine whether EE blocks IL-1β induction of gene expression by an estrogen receptor (ER) dependent mechanism. Estrogens can regulate gene expression by many mechanisms including ER independent pathways such as antioxidant mechanisms. […] Liver expression levels of Fnk, JAB, LIX, bcl-3 and SHP (mean +/−SEM) were determined by realtime PCR.
Referring to FIGS. 5a, 5b, 5c, 5d, and 5e, experiments were conducted to determine whether ERα is required for EE regulation of gene expression in the liver. To determine whether ERα or ERβ mediated the EE effects on IL-1β gene expression in the liver, C57BL/6 wild type mice, C57BL/6 ERαKO mice, or 129 ERβKO mice were pretreated with vehicle (black bars) or […] EE (gray bars) for 5 days followed by a 1 hour treatment with IL-1β. Liver expression levels of Fnk, JAB, LIX, bcl-3, and SHP (mean +/−SEM) were quantified by realtime PCR, with expression in animals receiving vehicle+PBS defined as 1.0.

SHP [2] = experiment: Regulation of SHP expression in mouse liver, six weeks treatment, real time PCR; format: in vivo; settings: for liver SHP mRNA levels, WT animals: ovariectomized wildtype mice, sc six weeks, 10 ug/kg/day E2, 5 mg/kg/day tamoxifen, 5 mg/kg/day PPT
Experimental: Several experiments were conducted to investigate the regulation of SHP expression, as follows. Referring to FIG. 9, ERα regulation of SHP expression in mouse liver was studied. […] Liver expression of SHP was monitored by real time PCR, with normalization for GAPDH expression. […] ICI182780 inhibited this induction.

SHP [3] = experiment: Regulation of SHP by estrogen in the rat liver, real time PCR; format: in vivo; settings: ovariectomized Sprague-Dawley rats, 10 ug/kg/day E2 or 5 mg/kg/day PPT, six weeks
Source text: Liver expression of SHP was monitored by real time PCR, with normalization for GAPDH expression.

human SHP promoter = experiment: hSHP promoter luciferase reporter in HepG2 or 293 cells cotransfected with human ERα; format: cell-based; settings: for SHP promoter activity, compound alone: 10 nM E2 or 1 uM compound, 24 hours
Experimental: Referring to FIGS. 11a and 11b, ERα regulation of hSHP promoter activity in human cells was examined. Human HepG2 or 293 cells were cotransfected with a control SV40 driven β-galactosidase plasmid, a luceriferase plasmid driven by 1.4 kb of the human SHP promoter, and an expression plasmid encoding either no protein or human ERα. […] Cell extracts were then analyzed for luciferase activity normalized for β-galactosidase activity.
Referring to FIGS. 12a, 12b, and 12c, ERα regulation of hSHP promoter activity in 293 cells was examined. Referring to FIGS. 12a and 12b, 293 cells were cotransfected with a control SV4O driven […] plasmid, a luceriferase plasmid driven by either 1.4 kb of the human SHP promoter or a synthetic 2×ERE/TK promoter, and an expression plasmid for human ERα. […] Cell extracts were then analyzed for luciferase activity with normalization for β-galaetosidase activity.

[4] = system: prostaglandin D synthase, IPS; experiment: Liver expression of prostaglandin D synthase and IPS; format: in vivo; settings: mouse liver; 30 mg/kg/day genistein, 5 mg/kg/day raloxifene
Source text: Referring to FIGS. 6a and 6b, experiments were constructed and performed to establish that EE induction of gene expression is not required for ERα inhibition of IL-1β gene inductions. […] The expression level in the vehicle+PBS treated mice was defined as 1.0. […] However, there was no correlation between the ability of these compounds to inhibit IL-1β gene induction (EE>genistein>raloxifene) and the ability of these compounds to stimulate prostaglandin D synthase expression (EE>>raloxifene>genistein).

SHP [5] = experiment: IL-1β inhibition of SHP expression in HepG2 cells (realtime PCR); format: cell-based, human; settings: 100 U/ml IL-1β, 3 and 6 hours, p<0.05 vs time 0
Experimental: Referring to FIG. 2, IL-1β inhibition of SHP expression in HepG2 cells was examined as follows. IL-1β is typically not associated with repression of gene expression. To verify a direct IL-1β mediated repression of SHP expression, HepG2 cells were treated with 100 U/ml IL-1β. Total RNA prepared at various times afterward was analyzed for SHP expression by using realtime PCR. […] This was not due to a general decrease in cell viability as SHP mRNA levels returned to baseline levels by 9 hours following IL-1β treatment.

mouse liver = settings: GeneChip, 1 h after 20 ug/kg IL-1β ip, pretreated 5 days with vehicle or 100 ug/kg/day EE sc, vehicle+PBS=1.0;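 further: ovariectomized C57BL/6 mice, liver polyA RNA profiled, values are fold expression relative to vehicle plus PBS, averaged over two independent experiments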
Experimental: Experiments were conducted to evaluate IL-1β regulation of gene expression in the mouse liver. Ovariectomized C57BL/6 mice were pretreated by subcutaneous administration of either corn oil/ethanol vehicle or 100 ug/kg/day ethynylestradiol (EE) for 5 days. On the fifth day, the mice received an intraperitoneal injection of either PBS or 20 ug/kg IL-1β in PBS. One hour later the livers were removed and polyA RNA was prepared. Global gene expression was determined by analysis using murine 11K GeneChips from Affymetrix. For each gene, the level of expression in animals receiving vehicle pretreatment plus PBS was defined as 1.0, with the expression levels in the mice receiving vehicle pretreatment±IL-1β or EE pretreatment±IL-1β defined relative to this. The results shown are the mean from two independent experiments.
The fold regulation of each gene is plotted for animals receiving vehicle pretreatment x-axis) vs. animals receiving pretreatment with EE (y-axis). Genes with IL-1β induction unaffected by EE pretreatment would lie along the dotted diagonal.

[6] = mice, 100 ug/kg/day EE, 5 mg/kg/day raloxifene

`C[C@]12CC[C@@H]3c4ccc(O)cc4CC[C@H]3[C@@H]1CC[C@@H]2O` [E2, 17β-estradiol] was tested. Which “effect on regulation of liver Fnk, JAB, LIX, bcl-3 and SHP expression vs IL-1β alone” value [1, 6] did it give?
The value was “greatest effect”.

What about the “expression of SHP in ERαKO or ERαβKO mice” value (SHP [2]; 10 ug/kg/day E2, six weeks) of the same compound?
Its value is “did not induce”.

And the “expression of SHP in ERβKO mice” value (SHP [2]; 10 ug/kg/day E2, six weeks)?
Its value is “still induced”.

What about the “liver SHP mRNA levels, WT animals” value (SHP [2]) of the same compound?
Its value is “induced”.

And the “liver SHP expression, rat” value (SHP [3])?
Its value is “significantly induced”.

And the “SHP promoter activity, compound alone” value (human SHP promoter; 293 cells with human ERα)?
The value was “stimulated”.

What about the SHP promoter activity (human SHP promoter; HepG2 or 293 cells, 10 nM E2 24 hours, only in cells expressing ERα) of the same compound?
The SHP promoter activity was “induced”.

What does the source list for `O=C(c1ccc(OCCN2CCCCC2)cc1)c1c(-c2ccc(O)cc2)sc2cc(O)ccc12` [raloxifene]?
SHP expression in liver ([1]; mice, 5 mg/kg/day raloxifene (FIG. 4)): did not increase; effect on regulation of liver Fnk, JAB, LIX, bcl-3 and SHP expression vs IL-1β alone [1, 6]: magnitude was not as great; inhibition of IL-1β induction of Fnk, JAB, LIX and bcl-3 ([1]; mouse liver, 100 ug/kg/day EE, 30 mg/kg/day genistein, 5 mg/kg/day raloxifene): able to inhibit; also recorded: inhibited; induction of IPS [4]: very weak induction; SHP promoter activity, compound alone (human SHP promoter; 293 cells with human ERα): inactive alone; effect on E2 activity at SHP promoter (human SHP promoter; 293 cells with human ERα, 1 uM compound plus 10 nM E2): antagonized

With `CCCc1c(-c2ccc(O)cc2)nn(-c2ccc(O)cc2)c1-c1ccc(O)cc1` [PPT] as the compound, how does the “liver SHP mRNA levels, WT animals” value (SHP [2]) read?
The value was “induced”.

What about the “liver SHP expression, rat” value (SHP [3]) of the same compound?
The value was “significantly induced”.

What does the source list for “IL-1: cytokine IL-1β, injected intraperitoneally in PBS or added to HepG2 cells”?
IL-1 repression of SHP expression ([1]; mouse liver, realtime PCR, vehicle treated or 100 ug/kg/day EE treated animals): 86%; IL-1 induction of bcl-3 ([1]; mouse liver, realtime PCR, vehicle treated or 100 ug/kg/day EE treated mice, IL-1 vs PBS): 6.2 fold; SHP expression (SHP [5]): significantly reduced; IL-1 Induction A20 (Tnfaip3) (mouse liver): 14.0 fold; IL-1 Induction B94, TNF-α induced protein 2 (Tnfaip2) (mouse liver): 17.1 fold; IL-1 Induction C/EBPδ (Cebpd) (mouse liver): 7.0 fold; IL-1 Induction CD14 (Cd14) (mouse liver): 3.5 fold; IL-1 Induction CD83 (Cd83) (mouse liver): 6.2 fold; IL-1 Induction E-selectin (Sele) (mouse liver): 7.2 fold; IL-1 Induction Ets transcription factor ELF3 (Elf3) (mouse liver): 22.5 fold; IL-1 Induction G0/G1 switch gene 2 (G0s2) (mouse liver): 0.11 fold; IL-1 Induction GTP binding protein IRG-47 (lfi47) (mouse liver): 5.4 fold; IL-1 Induction Gadd45 (Gadd45a) (mouse liver): 10.9 fold; IL-1 Induction Glvr-1 (Slc20a1) (mouse liver): 3.9 fold; IL-1 Induction H-2Ld (H-2L) (mouse liver): 8.2 fold; IL-1 Induction ICAM-1 (lcam1) (mouse liver): 40.9 fold; IL-1 Induction IL-1m (Il1m) (mouse liver): 23.6 fold; IL-1 Induction IL-15 receptor (Il15ra) (mouse liver): 9.2 fold; IL-1 Induction IxBa (Nfkbia) (mouse liver): 8.7 fold; IL-1 Induction JAB, suppressor of cytokine signaling 1 (Cish1) (mouse liver): 7.3 fold; IL-1 Induction JE/MCP-1 (Scya2) (mouse liver): 82.3 fold; IL-1 Induction LIX (Scyb5) (mouse liver): 5.2 fold; IL-1 Induction LPS inducible C—C chemokine receptor related (AF030185) (mouse liver): 6.3 fold; IL-1 Induction M-CSF (Csf1) (mouse liver): 32.8 fold; IL-1 Induction MARCKS-like macrophage protein (Mlp) (mouse liver): 4.8 fold; IL-1 Induction MIG (Scyb9) (mouse liver): 15.0 fold; IL-1 Induction MIP2 (Scyb2) (mouse liver): 60.1 fold; IL-1 Induction MIP-1 gamma (Scya9) (mouse liver): 2.9 fold; IL-1 Induction MyD118 (GADD45b) (mouse liver): 24.3 fold; IL-1 Induction NF-E2 related factor 2 (NRF2) (Nfe212) (mouse liver): 5.2 fold; IL-1 Induction NF-kappa-B p105 (Nfkb1) (mouse liver): 13.8 fold; IL-1 Induction NFkB p100 (Nfkb2) (mouse liver): 4.0 fold; IL-1 Induction PAI-1 (Serpine1) (mouse liver): 37.6 fold; IL-1 Induction PDGF-induced KC (Gro1) (mouse liver): 7.3 fold; IL-1 Induction PIM-1 protein kinase (Pim1) (mouse liver): 2.4 fold; IL-1 Induction SHP (NrGb2) (mouse liver): 0.23 fold; IL-1 Induction T-cell death associated gene (Tdag) (mouse liver): 2.5 fold; IL-1 Induction T-cell specific GTPase (Tgtp) (mouse liver): 4.4 fold; IL-1 Induction TGFB inducible early growth response (Tieg) (mouse liver): 0.31 fold; IL-1 Induction Ubiquitin-conjugating E2 enzyme variant 2 (Ube2v2) (mouse liver): 5.0 fold; IL-1 Induction VCAM-1 (Vcam1) (mouse liver): 5.2 fold; IL-1 Induction adrenergic receptor, beta 2 (Adrb2) (mouse liver): 2.9 fold; IL-1 Induction adrenomedullin (Adm) (mouse liver): 11.3 fold; IL-1 Induction apoptosis inhibitor 1 (Birc2) (mouse liver): 12.2 fold; IL-1 Induction apoptosis inhibitor 2 (Birc3) (mouse liver): 9.6 fold; IL-1 Induction bcl-3 (Bcl3) (mouse liver): 11.6 fold; IL-1 Induction c-JUN (Jun) (mouse liver): 4.8 fold; IL-1 Induction calcium binding protein A6 (S100a6) (mouse liver): 2.4 fold; IL-1 Induction calgranulin A (S100A8) (mouse liver): 10.4 fold; IL-1 Induction calgranulin B (S100a9) (mouse liver): 12.5 fold; IL-1 Induction cytokine-inducible kinase Fnk (Cnk) (mouse liver): 2.9 fold; IL-1 Induction gly96 (ler3) (mouse liver): 42.1 fold; IL-1 Induction growth factor receptor bound protein 7 (Grb7) (mouse liver): 0.27 fold; IL-1 Induction guanylate nucleotide binding protein 2 (Gbp2) (mouse liver): 6.5 fold; IL-1 Induction helix-loop-helix factor HES-1 (Hes1) (mouse liver): 0.09 fold; IL-1 Induction heme oxygenase 1 (Hmox1) (mouse liver): 5.5 fold; IL-1 Induction hsp68 (Hsp70-3) (mouse liver): 6.3 fold; IL-1 Induction inducible 6-phosphofructo-2-kinase (AA163244) (mouse liver): 4.0 fold; IL-1 Induction inhibitor of DNA binding 3 (idb3) (mouse liver): 6.0 fold; IL-1 Induction insulin-like growth factor binding protein 1 (lgfbp1) (mouse liver): 4.0 fold; IL-1 Induction intercrine (Scya7) (mouse liver): 12.4 fold; IL-1 Induction interferon regulatory factor 1 (Irf1) (mouse liver): 10.5 fold; IL-1 Induction junB (Junb) (mouse liver): 2.9 fold; IL-1 Induction lipocalin 2 (Lcn2) (mouse liver): 5.5 fold; IL-1 Induction lkB-beta (Nfkbib) (mouse liver): 4.0 fold; IL-1 Induction m-myc (Myc) (mouse liver): 3.0 fold; IL-1 Induction macrophage interferon inducible protein 10 (Scyb10) (mouse liver): 50.1 fold; IL-1 Induction metalloproteinase-disintegrin (Adamts1) (mouse liver): 2.7 fold; IL-1 Induction molecule possessing ankyrin-repeats induced by LPS (aa614971) (mouse liver): 22.7 fold; IL-1 Induction myocyte-enriched calcineurin interactin protein (Dscrl) (mouse liver): 11.1 fold; IL-1 Induction noctumin (Ccr4) (mouse liver): 7.7 fold; IL-1 Induction p65 NF-kappa B (Rela) (mouse liver): 2.5 fold; IL-1 Induction phospholipid scramblase 1 (Plscr1) (mouse liver): 4.4 fold; IL-1 Induction protein tyrosine phosphatase 4a1 (Ptp4a1) (mouse liver): 2.0 fold; IL-1 Induction regulator for ribosome resistance homolog (Rrr) (mouse liver): 2.8 fold; IL-1 Induction relB (Relb) (mouse liver): 7.0 fold; IL-1 Induction rhoB (Arhb) (mouse liver): 30.0 fold; IL-1 Induction serum amyloid A 3 (Saa3) (mouse liver): 37.4 fold; IL-1 Induction serum amyloid A 4 (Saa4) (mouse liver): 2.5 fold; IL-1 Induction suppressor of cytokine signaling 2 (Cish2) (mouse liver): 2.7 fold; IL-1 Induction suppressor of cytokine signaling 3 (Cish3) (mouse liver): 13.5 fold; IL-1 Induction transglutaminase (Tgm2) (mouse liver): 2.2 fold
